Test results published in patent US12551563B2, “ERK5 degraders as therapeutics in cancer and inflammatory diseases” (DANA-FARBER CANCER INSTITUTE, INC., priority 2019, dated 2026).
Values belong to the compound of their own block, whether it stands above or below them.

Columns and labels:
Type in all cases: cell-based
[1] = target: T1, ERK5 (Homo sapiens, UniProt Q13164); assay: Western blot, rescue of compound 7-induced ERK5 degradation by pretreatment in MIA Paca-2 cells; set-up: immunoblotted with primary antibodies against ERK5 (Cell Signaling®); endogenous in cells; host or cells: MIA PaCa-2; settings: for Rescue of ERK5 degradation induced by bispecific compound 7: then 1 μM compound 7 for 24 h (FIG. 3)
Experimental: (§1) MIA Paca-2 cells were treated with 0, 0.1, 1, or 10 μM of bispecific compounds 3-7 for 24 hours. Cells were then lysed in RIPA buffer (Sigma®) containing protease/phosphatase inhibitor cocktail (Roche®). The protein concentrations were measured by bicinchoninic acid assay (BCA) analysis (Pierce™). Equal amounts of protein were resolved by 4-12% Tris-Base gels (Invitrogen™), and then transferred to the Immuno-Blot PVDF membrane (BioRad), and immunoblotted with primary antibodies against ERK5 (Cell Signaling®) and […] (Cell Signaling®), and then immunoblotted with IRDye®800-labeled goat anti-rabbit IgG and IRDye®800-labeled goat anti-mouse IgG (LI-COR) secondary antibodies. The membranes were detected on Odyssey® CLx system.
MIA Paca-2 cells were pretreated with 10 μM XMD17-109 (the parental compound and known ERK5 inhibitor; available from, e.g., MedChemExpress, Cat. No. HY-15665, Monmouth Junction, N.J.), 10 μM DGY-05-180 (VHL ligand), 0.1 μM Bortezomib (a proteasome inhibitor; available from, e.g., Millipore Sigma, Cat. No. 179324-69-7, Burlington, Mass.), and 1 μM MLN4924 (a neddylation inhibitor; available from, e.g., MedChemExpress, Cat. No. HY-70062, Monmouth Junction, N.J.), for 2 h, and then treated with 1 μM bispecific compound 7 for 24 h. Cells were lysed and immunoblotted as described above with antibodies to ERK5 and GAPDH (Cell Signaling®).

[2] = target: T1, ERK5; assay: Western blot of ERK5 degradation in MIA Paca-2 cells; set-up: immunoblotted with primary antibodies against ERK5 (Cell Signaling®); endogenous in cells; host or cells: MIA PaCa-2; settings: 24 hours, at 1 and 10 μM (FIG. 1)
Experimental: as §1

[3] = target: T1, ERK5; assay: Western blot of ERK5 degradation in A375 cells; set-up: immunoblotted with primary antibodies against ERK5 (Cell Signaling®); endogenous in cells; host or cells: A375; settings: 24 hours, at 1 and 10 μM (FIG. 2)
Experimental: as §1
A375 cells were treated with 0, 0.1, 1, or 10 μM of bispecific compounds 3, 4, and 7-9 for 24 hours. Cells were lysed and immunoblotted as described above with antibodies to ERK5 and β-Actin.

[4] = target: T1, ERK5; assay: Western blot of ERK5 degradation in MOLT4 cells (0.1 or 1 μM); set-up: immunoblotted with primary antibodies against ERK5 (Cell Signaling®); endogenous in cells; host or cells: MOLT4; settings: 5 hours, at 0.1 and 1 μM (FIG. 4)
Experimental: as §1
MOLT4 cells were treated with 0.1 or 1 μM of bispecific compounds 15-20 for 5 hours. Cells were lysed and immunoblotted as described above with antibodies to ERK5 and β-Actin.

[5] = target: T1, ERK5; assay: Western blot of ERK5 degradation in MOLT4 cells (dose curve); set-up: immunoblotted with primary antibodies against ERK5 (Cell Signaling®); endogenous in cells; host or cells: MOLT4; settings: 5 hours, 0.1, 0.25, 0.5, or 1 μM (FIG. 5)
Experimental: as §1
(§2) MOLT4 cells were treated with 0.1, 0.25, 0.5, or 1 μM of bispecific compounds 18 and 23 for 5 hours. Cells were lysed and immunoblotted as described above with antibodies to ERK5, BRD4, and β-Actin.

[6] = target: T2, BRD4 (Homo sapiens, UniProt O60885); assay: Western blot of BRD4 degradation in MOLT4 cells (dose curve); settings: 5 hours, 0.1, 0.25, 0.5, or 1 μM (FIG. 5)
T2 construct: endogenous in cells; host or cells: MOLT4
Experimental: as §1, §2

T1 sequence (Q13164 whole entry): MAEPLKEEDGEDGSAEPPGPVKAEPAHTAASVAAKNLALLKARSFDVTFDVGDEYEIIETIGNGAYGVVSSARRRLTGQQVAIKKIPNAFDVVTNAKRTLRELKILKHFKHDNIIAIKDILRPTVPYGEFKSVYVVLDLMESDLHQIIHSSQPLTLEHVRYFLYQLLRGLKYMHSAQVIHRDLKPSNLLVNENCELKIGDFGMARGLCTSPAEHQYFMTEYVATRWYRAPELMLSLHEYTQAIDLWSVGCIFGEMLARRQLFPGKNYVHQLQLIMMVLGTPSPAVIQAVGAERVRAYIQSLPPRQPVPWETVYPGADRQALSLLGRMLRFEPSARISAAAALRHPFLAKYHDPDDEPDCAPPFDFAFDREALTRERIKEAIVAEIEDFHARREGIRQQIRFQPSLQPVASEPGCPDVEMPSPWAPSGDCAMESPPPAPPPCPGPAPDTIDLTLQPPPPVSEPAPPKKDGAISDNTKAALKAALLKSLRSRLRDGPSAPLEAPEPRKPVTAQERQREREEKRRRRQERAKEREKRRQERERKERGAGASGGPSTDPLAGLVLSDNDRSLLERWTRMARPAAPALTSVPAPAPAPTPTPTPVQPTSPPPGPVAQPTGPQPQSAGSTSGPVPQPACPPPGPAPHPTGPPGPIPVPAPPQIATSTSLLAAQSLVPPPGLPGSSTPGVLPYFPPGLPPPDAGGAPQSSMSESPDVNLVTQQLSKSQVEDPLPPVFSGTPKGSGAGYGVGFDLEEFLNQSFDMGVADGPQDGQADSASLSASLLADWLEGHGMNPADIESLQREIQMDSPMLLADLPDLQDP

SMILES: CC(C)C[C@H](NC(=O)[C@H](Cc1ccccc1)NC(=O)c1cnccn1)B(O)O [Bortezomib]
Rescue of ERK5 degradation induced by bispecific compound 7 ([1]; pretreated 2 h with 0.1 μM): rescued the ERK5 degradation induced by bispecific compound 7

SMILES: NS(=O)(=O)OC[C@@H]1C[C@@H](n2ccc3c(N[C@H]4CCc5ccccc54)ncnc32)C[C@@H]1O [MLN4924]
Rescue of ERK5 degradation induced by bispecific compound 7 ([1]; pretreated 2 h with 1 μM): rescued the ERK5 degradation induced by bispecific compound 7

SMILES: CCOc1cc(C(=O)N2CCC(N3CCN(C)CC3)CC2)ccc1Nc1ncc2c(n1)N(C1CCCC1)c1ccccc1C(=O)N2C [XMD17-109]
Rescue of ERK5 degradation induced by bispecific compound 7 ([1]; pretreated 2 h with 10 μM): rescued the ERK5 degradation induced by bispecific compound 7

Now from value to compound:

ERK5 degradation (Western blot) [2]: induced the degradation of ERK5 | ERK5 degradation (Western blot) [3]: induced the degradation of ERK5 | Dependence of ERK5 degradation (mechanism) ([1]; 1 μM for 24 h after pretreatment with competitors/inhibitors (FIG. 3)): both ligand and proteasome dependent
SMILES: Cc1ncsc1-c1ccc([C@H](C)NC(=O)[C@@H]2C[C@@H](O)CN2C(=O)[C@@H](NC(=O)CCCCCCCNC(=O)c2ccc(Nc3ncc4c(n3)N(C3CCCC3)c3ccccc3C(=O)N4C)cc2)C(C)(C)C)cc1 [compound 7, (2S,4R)-1-((S)-2-(8-(4-((11-cyclopentyl-5-methyl-6-oxo-6,11-dihydro-5H-benzo[e]pyrimido[5,4-b][1,4]diazepin-2-yl)amino)benzamido)octanamido)-3,3-dimethylbutanoyl)-4-hydroxy-N-((S)-1-(4-(4-methylthiazol-5-yl)phenyl)ethyl)pyrrolidine-2-carboxamide]

ERK5 degradation (Western blot) [4]: induced the degradation of ERK5 | ERK5 degradation (Western blot) [5]: induced the degradation of ERK5 | BRD4 degradation (Western blot) [6]: induced the degradation of ERK5 and BRD4
SMILES: Cc1ncsc1-c1ccc([C@H](C)NC(=O)[C@@H]2C[C@@H](O)CN2C(=O)[C@@H](NC(=O)CCCCCN2CCN(C(=O)c3ccc(Nc4ncc5c(n4)N(C4CCCC4)c4ccccc4C(=O)N5C)cc3)CC2)C(C)(C)C)cc1 [compound 18, (2S,4R)-1-((S)-2-(6-(4-(4-((11-cyclopentyl-5-methyl-6-oxo-6,11-dihydro-5H-benzo[e]pyrimido[5,4-b][1,4]diazepin-2-yl)amino)benzoyl)piperazin-1-yl)hexanamido)-3,3-dimethylbutanoyl)-4-hydroxy-N-((S)-1-(4-(4-methylthiazol-5-yl)phenyl)ethyl)pyrrolidine-2-carboxamide]

ERK5 degradation (Western blot) [5]: induced the degradation of ERK5
SMILES: CCC(C)N1c2ccccc2C(=O)N(C)c2cnc(Cc3ccc(C(=O)N4CCN(CCCCCC(=O)N[C@H](C(=O)N5C[C@H](O)C[C@H]5C(=O)N[C@@H](C)c5ccc(-c6scnc6C)cc5)C(C)(C)C)CC4)cc3)nc21 (stereo partly drawn) [compound 23, (2S,4R)-1-((2S)-2-(6-(4-(4-((11-(sec-butyl)-5-methyl-6-oxo-6,11-dihydro-5H-benzo[e]pyrimido[5,4-b][1,4]diazepin-2-yl)methyl)benzoyl)piperazin-1-yl)hexanamido)-3,3-dimethylbutanoyl)-4-hydroxy-N-((S)-1-(4-(4-methylthiazol-5-yl)phenyl)ethyl)pyrrolidine-2-carboxamide]
